Consider 28 compounds from ChEMBL document CHEMBL5244202, “Structural evolution of toll-like receptor 7/8 agonists from imidazoquinolines to imidazoles” (RSC Med Chem, 2021).

One may read the EC50 as the midpoint of the concentration-response curve.

The target in experiment [1] is T1, Toll-like receptor 7 (Homo sapiens, UniProt Q9NYK1).
T1 sequence (Q9NYK1 whole entry): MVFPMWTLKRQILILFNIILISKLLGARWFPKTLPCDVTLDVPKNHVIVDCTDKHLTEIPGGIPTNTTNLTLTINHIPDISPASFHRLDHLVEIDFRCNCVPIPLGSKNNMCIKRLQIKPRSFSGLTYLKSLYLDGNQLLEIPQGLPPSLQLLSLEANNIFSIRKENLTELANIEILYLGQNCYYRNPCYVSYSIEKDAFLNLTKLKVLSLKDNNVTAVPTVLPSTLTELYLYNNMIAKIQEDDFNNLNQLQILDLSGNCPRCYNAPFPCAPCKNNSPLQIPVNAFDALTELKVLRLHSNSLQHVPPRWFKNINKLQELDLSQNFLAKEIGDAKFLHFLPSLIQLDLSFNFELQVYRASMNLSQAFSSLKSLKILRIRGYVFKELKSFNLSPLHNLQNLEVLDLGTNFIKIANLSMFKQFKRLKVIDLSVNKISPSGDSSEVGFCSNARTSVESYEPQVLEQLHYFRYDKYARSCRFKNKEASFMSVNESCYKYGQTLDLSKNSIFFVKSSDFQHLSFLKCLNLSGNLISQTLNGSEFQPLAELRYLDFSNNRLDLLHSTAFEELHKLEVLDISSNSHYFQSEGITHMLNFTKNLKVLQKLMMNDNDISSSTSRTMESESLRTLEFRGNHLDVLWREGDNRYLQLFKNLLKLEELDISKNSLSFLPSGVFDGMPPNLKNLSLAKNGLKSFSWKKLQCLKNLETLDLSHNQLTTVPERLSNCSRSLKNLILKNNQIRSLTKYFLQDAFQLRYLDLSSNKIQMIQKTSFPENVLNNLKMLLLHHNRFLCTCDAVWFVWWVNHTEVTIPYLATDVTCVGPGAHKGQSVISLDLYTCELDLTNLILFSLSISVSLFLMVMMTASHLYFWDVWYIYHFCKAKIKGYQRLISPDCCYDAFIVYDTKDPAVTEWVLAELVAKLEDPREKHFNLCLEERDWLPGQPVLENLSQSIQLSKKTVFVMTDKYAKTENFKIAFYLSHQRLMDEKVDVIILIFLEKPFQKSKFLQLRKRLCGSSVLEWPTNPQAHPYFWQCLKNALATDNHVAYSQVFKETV
The experiment is described as follows: Agonist activity at TLR7 (unknown origin).

In experiment [2] the target is T1, Toll-like receptor 7. The experiment is described as follows: Agonist activity at human TLR7 in HEK-Blue hTLR7 cells assessed as activation of NFkappaB by SEAP reporter gene based spectrophotometry assay. Type of experiment: cell-based.
Experiment [3] addresses T2, Toll-like receptor 8 (Homo sapiens, UniProt Q9NR97).
T2 sequence (Q9NR97 whole entry): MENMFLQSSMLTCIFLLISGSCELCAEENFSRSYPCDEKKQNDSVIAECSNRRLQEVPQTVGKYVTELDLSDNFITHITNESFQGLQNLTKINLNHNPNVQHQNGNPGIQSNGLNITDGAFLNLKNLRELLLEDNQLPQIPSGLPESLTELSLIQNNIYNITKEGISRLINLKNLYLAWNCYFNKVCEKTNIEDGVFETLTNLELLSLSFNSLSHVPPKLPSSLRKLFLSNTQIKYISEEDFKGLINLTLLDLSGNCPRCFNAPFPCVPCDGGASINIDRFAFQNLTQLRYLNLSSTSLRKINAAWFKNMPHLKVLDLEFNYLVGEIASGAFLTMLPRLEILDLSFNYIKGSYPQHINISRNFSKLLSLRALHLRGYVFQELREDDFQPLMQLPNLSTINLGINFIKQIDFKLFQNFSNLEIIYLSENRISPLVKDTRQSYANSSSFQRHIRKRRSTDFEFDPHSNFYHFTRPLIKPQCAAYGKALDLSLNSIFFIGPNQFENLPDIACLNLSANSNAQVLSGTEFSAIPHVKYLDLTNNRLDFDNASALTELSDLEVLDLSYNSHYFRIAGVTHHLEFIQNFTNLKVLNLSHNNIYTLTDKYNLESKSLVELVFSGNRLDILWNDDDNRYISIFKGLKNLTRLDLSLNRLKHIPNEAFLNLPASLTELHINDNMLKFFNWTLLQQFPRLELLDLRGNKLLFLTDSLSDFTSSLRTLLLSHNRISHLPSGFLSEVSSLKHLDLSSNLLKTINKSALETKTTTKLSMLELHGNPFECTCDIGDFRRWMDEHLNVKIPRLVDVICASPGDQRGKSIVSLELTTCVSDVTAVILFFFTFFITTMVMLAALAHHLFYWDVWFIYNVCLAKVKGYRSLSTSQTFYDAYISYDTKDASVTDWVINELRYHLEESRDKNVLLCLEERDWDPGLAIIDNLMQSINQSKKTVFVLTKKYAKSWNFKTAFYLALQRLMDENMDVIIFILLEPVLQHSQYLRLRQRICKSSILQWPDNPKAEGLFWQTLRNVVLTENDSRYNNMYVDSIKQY
The experiment is described as follows: Agonist activity at human TLR8 in HEK-Blue hTLR8 cells assessed as activation of NFkappaB by SEAP reporter gene based spectrophotometry assay. Type of experiment: cell-based. For orientation: Reporter assays use an easily measured gene product as a stand-in for the process of interest.

The nature of experiment [4]: Induction of IFN production in C3H/HeJ mouse splenocytes incubated for 18 hrs. Type of experiment: functional. As to conditions: Splenocyte, read-out: MEC.
Experiment [5] has as its target T2, Toll-like receptor 8. The experiment is described as follows: Agonist activity at TLR8 (unknown origin).
Experiment [6] addresses T2, Toll-like receptor 8. The experiment can be described thus: Agonist activity at human TLR8 (27 to 287 residues) in HEK-Blue hTLR8 cells assessed as induction of NFkappaB by SEAP reporter gene based spectrophotometry assay. Type of experiment: cell-based.
Experiment [7] deals with T2, Toll-like receptor 8. The experiment is described as follows: Agonist activity at human TLR8 transfected in HEK293 cells assessed as induction of SEAP production incubated overnight. Type of experiment: cell-based.
For experiment [8], the target named is T1, Toll-like receptor 7. The experiment can be described thus: Agonist activity at recombinant human TLR7 transfected in HEK293 cells assessed as induction of SEAP production incubated overnight by SEAP reporter gene based assay. Type of experiment: cell-based.
Experiment [9] concerns the target T1, Toll-like receptor 7. The experiment is described as follows: Agonist activity at human TLR7 transfected in HEK293 cells assessed as induction of SEAP production incubated overnight by SEAP reporter gene based assay. Type of experiment: cell-based.

On Toll-like receptor 7 [1], `CCCCOc1nc(N)c2[nH]cc(Cc3ccc(CN4CCCC4)cc3)c2n1` displayed a concentration for a half-maximal effect (EC50) of 0.1 µM. As for `CCCCc1nc2c(NC=O)nc3ccccc3c2s1`, the EC50 at Toll-like receptor 7 [2] (hek-blue htlr7) amounted to 2.54 µM. For `CCCc1nc2c(NS(C)(=O)=O)nc3ccccc3c2s1`, on Toll-like receptor 8 [3] (hek-blue htlr8), the EC50 was 10.6 µM. `CCCc1nc2c(NC(=O)CCN=[N+]=[N-])nc3ccccc3c2s1`: on Toll-like receptor 8 [3] (hek-blue htlr8), the EC50 amounted to 2.23 µM. For the compound `CC(C)Cc1nc2c(N)nc3ccccc3c2s1`, the EC50 at Toll-like receptor 7 [2] (hek-blue htlr7) amounted to 6.96 µM; on Toll-like receptor 8 [3] (hek-blue htlr8) it was 1.55 µM. For `CCCCSc1nc(N)c2nc(O)n(Cc3ccccc3)c2n1`, in experiment [4], the minimal effective concentration is 0.01 µM. In turn, `CCCCNc1nc(N)nnc1OCCCc1ccccc1` registered a half-maximal effective concentration (EC50) on Toll-like receptor 7 [1] of 2.94 µM. For `CCCCNc1nc(N)nnc1OC`, the EC50 on Toll-like receptor 7 [1] worked out at 17.5 µM.

Consider `CCCCc1nc2c(N)nc(NCC3CCCCC3)cc2n1Cc1ccccc1`, for which the 50% effective concentration (EC50) at Toll-like receptor 7 [2] stood at 0.32 µM. As to `CC[C@H](C)Cc1nc2c(N)nc3ccccc3c2s1`, the EC50 was 4.74 µM on Toll-like receptor 7 [2] (hek-blue htlr7) and 2.51 µM at Toll-like receptor 8 [3] (hek-blue htlr8). For `CCCc1nc2c(N)nc3ccc(-n4cc([Si](C)(C)C)nn4)cc3c2s1`, the EC50 on Toll-like receptor 8 [3] (hek-blue htlr8) was 9.84 µM. Turning to `Nc1nc2ccccc2c2sc(CCCC(F)(F)F)nc12`, the EC50 at Toll-like receptor 7 [2] (hek-blue htlr7) was 2.25 µM; at Toll-like receptor 8 [3] (hek-blue htlr8) it was 6.29 µM. Turning to `CCCCNc1nc(N)nnc1OCc1ccccc1`, the values for the EC50 on Toll-like receptor 8 [5] and on Toll-like receptor 7 [1] were 1.93 µM and 2.94 µM, respectively. For `CCCCNc1nc(N)nnc1OCCCN(C)C`, in that order: 0.1 µM and greater than 25 µM. As to `CCOc1cc2ccccc2nc1N`, the EC50 at Toll-like receptor 8 [6] is 100 µM.

Take `CCCCOc1nc(N)c2[nH]c(C#N)c(Cc3ccc(CN4CCCC4)nc3)c2n1`: at Toll-like receptor 7 [1], a half-maximal effect (EC50) was put at 0.001 µM.

For `CC(C)c1nc2c(N)nc3ccccc3c2s1`, the concentration for a half-maximal effect (EC50) was found to be 9.67 µM on Toll-like receptor 7 [2] (hek-blue htlr7) and 10.8 µM on Toll-like receptor 8 [3] (hek-blue htlr8). In the case of `CCCCNc1nc(N)nnc1OCc1ccccn1`, it took 0.17 µM to reach a half-maximal effect on Toll-like receptor 7 [1] (EC50). `CCCCNc1nc(N)nnc1OCc1ccccc1OC`: the midpoint of the response on Toll-like receptor 8 [5], the EC50, lay at 0.64 µM. `CCC[C@@H](CO)Nc1nc(N)nc(C)c1Cc1ccc(CNC2CN(C)C2)cc1OC`: the EC50 on Toll-like receptor 8 [7] was 6.17 µM; on Toll-like receptor 7 [8] it was 0.155 µM. Consider `CCCc1nc2c(N)nc3ccc(N)cc3c2s1`, for which the 50% effective concentration (EC50) on Toll-like receptor 8 [3] (hek-blue htlr8) amounted to 3.88 µM. As to `CCC[C@@H](CCO)Nc1nc(N)nc(C)c1Cc1ccc(CN(C)CC(N)=O)cc1OC`, the results for the half-maximal effective concentration (EC50) at Toll-like receptor 8 [7] and on Toll-like receptor 7 [8] were greater than 10 µM and 0.055 µM, respectively. For `CCCCNc1nc(N)c2nc(O)n(Cc3ccccc3)c2n1`, the minimal effective concentration in [4] was found to be 0.1 µM. Regarding `CCCc1nc2c(NC=O)nc3ccccc3c2s1`, the EC50 on Toll-like receptor 8 [3] turned out to be 0.88 µM. Regarding `CCCCc1nc2c(N)nc(NCc3ccc(OC)cc3)cc2n1Cc1ccccc1`, the 50% effective concentration (EC50) on Toll-like receptor 7 [2] is 0.075 µM. `COCCc1nc2c(N)nc3ccccc3c2n1CCCCN(CCN(C)C)Cc1cccc(OCC(=O)OC(C)(C)C)c1`: the concentration giving a half-maximal response (EC50) at Toll-like receptor 7 [9] is 0.0564 µM.

Regarding `CCOC(=O)COc1ccc(CN(CCCn2c(CCOC)nc3c(N)nc4ccccc4c32)C(=O)CN(C)C)cc1`, the EC50 on Toll-like receptor 7 [9] was determined as 0.172 µM.

With `Nc1nc2ccccc2c2sc(CCC(F)(F)F)nc12`, the concentration for a half-maximal effect (EC50) on Toll-like receptor 7 [2] (hek-blue htlr7) worked out at 3.63 µM; at Toll-like receptor 8 [3] (hek-blue htlr8), 1.61 µM.
